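Tested at 5 concentrations; 48 h exposure; 96-well plates; endpoints linearly interpolated, else capped at highest concentration. TGI: concentration producing complete growth inhibition.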
Assays:
Assay in all cases: NCI anticancer screen, dose series, 48 h
[1] = tested on: HOP-18 NSCLC
[2] = tested on: OVCAR-4 ovarian
[3] = tested on: SNB-75 CNS
[4] = tested on: OVCAR-3 ovarian
[5] = tested on: NCI-H23 lung
[6] = tested on: XF 498 CNS
[7] = tested on: HCT-116 colon
[8] = tested on: M19-MEL melanoma
[9] = tested on: SNB-19 CNS
[10] = tested on: 786-0 renal
[11] = tested on: OVCAR-5 ovarian
[12] = tested on: A549 NSCLC
[13] = tested on: SK-MEL-2 melanoma
[14] = tested on: SF-295 CNS
[15] = tested on: KM12 colon
[16] = tested on: U251 CNS
[17] = tested on: UO-31 renal
[18] = tested on: SK-MEL-28 melanoma
[19] = tested on: LXFL 529 NSCLC
[20] = tested on: UACC-257 melanoma
[21] = tested on: HCC-2998 colon
[22] = tested on: MALME-3M melanoma
[23] = tested on: ACHN renal
[24] = tested on: DLD-1 colon
[25] = tested on: IGROV1 ovarian
[26] = tested on: COLO 205 colon
[27] = tested on: RPMI-8226 leukemia
[28] = tested on: NCI-H460 lung
[29] = tested on: OVCAR-8 ovarian
[30] = tested on: RXF-631 renal
[31] = tested on: SF-268 CNS
[32] = tested on: UACC-62 melanoma
[33] = tested on: DMS 114 small cell lung
[34] = tested on: SK-MEL-5 melanoma
[35] = tested on: SNB-78 CNS
[36] = tested on: LOX IMVI melanoma
[37] = tested on: HOP-92 NSCLC
[38] = tested on: KM20L2 colon
[39] = tested on: HL-60(TB) leukemia
[40] = tested on: NCI-H226 lung
[41] = tested on: TK-10 renal
[42] = tested on: M14 melanoma
[43] = tested on: HOP-62 NSCLC
[44] = tested on: MOLT-4 leukemia
[45] = tested on: EKVX NSCLC
[46] = tested on: SW-620 colon
[47] = tested on: CCRF-CEM leukemia
[48] = tested on: RXF 393 renal
[49] = tested on: SN12C renal
[50] = tested on: HT29 colon
[51] = tested on: A498 renal
[52] = tested on: DMS 273 small cell lung
[53] = tested on: K-562 leukemia
[54] = tested on: SF-539 CNS
[55] = tested on: SK-OV-3 ovarian
[56] = tested on: SR leukemia
[57] = tested on: HCT-15 colon

Measured: TGI

O=C(CC1SC(=Nc2ccccc2Cl)NC1=O)Nc1ccc(Cl)cc1Cl (stereo unspecified)
not listed: [51] | [52] | [53] | [54] | [55] | [56] | [57]
> 100 µM: all other assays above

CCCCC1(C)C=C/C(=C2/C(=O)O/C(=C\C(=O)O)C2=O)O1 (stereo unspecified)
not listed: [21] | [24] | [31] | [33] | [37] | [48]
> 100 µM: all other assays above
